From patent US20090082285A1, “Adiponectin expression promoter” (SAN-EI GEN F.F.I., INC., priority 2003, published 2009) come the findings set out here.

The test system of the assay is adiponectin mRNA in epididymis adipose cells. Put plainly: Adiponectin mRNA level in isolated epididymis adipose cells (RT-PCR, gel densitometry). As to conditions: for mRNA level: adiponectin mRNA, control (DMSO) defined as 1, cultured 24 hours at 37° C.; for adiponectin mRNA level in adipose tissue (result in words): conclusion from FIG. 1 and Table 5, 100 μM or 250 μM vs DMSO control. In kind it is cell-based, Wistar male rat. The procedure: A Wistar male rat (body weight of 160 g) was sacrificed and its epididymis adipose tissues were excised. The epididymis adipose tissues were placed in 0.5% bovine serum albumin (BSA)/30 mM HEPES/200 nM adenosine/Krebs Ringer bicarbonate buffer(BSA-KRBH) containing 1176 units/mL of collagenase (Sigma, type II), and allowed to stand at 37° C. for 90 minutes (hereunder, 0.5% BSA/30 mM HEPES/200 nM adenosine/Krebs Ringer bicarbonate buffer is referred to as BSA-KRBH). Adipose cells were isolated from the connective tissue by the above-described operation. The isolated adipose cells were then washed with BSA-KRBH four times, and the thus-obtained adipose cells were suspended in a BSA-KRBH culture medium.
Subsequently, to the thus-obtained suspension, a solution prepared by dissolving cyanidin (Cy; manufactured by Funakoshi Co., Ltd.) or cyanidin 3-O-β-D-glucoside (hereinafter, referred to as “cyanidin 3-glucoside”)(C3G; manufactured by Funakoshi Co., Ltd.) in DMSO was added in such a manner that the final concentration of cyanidin or cyanidin 3-glucoside was 100 μM or 250 μM. The resulting solutions were cultured under 5% CO2 at 37° C. for 24 hours, and the adipose cells were then collected.
Total RNAs were extracted from the thus-obtained adipose cell using an RNA extracting reagent (ISOGEN, manufactured by Nippon Gene Co., Ltd.) by following the instruction manual (http://www.nippongene.jp/pages/products/extraction/isogen/genol. html). Using the total RNAs as a template, a reverse transcription reaction was conducted at 37° C. for 120 minutes, and the RNAs were amplified by 20 cycles of PCR (RT-PCR (Reverse transcription-polymerase chain reaction) method). Specifically, 2.5 μg of total RNAs was subjected to reverse transcription in a buffer solution comprising oligo dT primer, 1.3 mM dNTP (deoxynucleoside triphosphates, GIBCO BRL, Grand Island, N.Y.), 10 mM DTT (dithiothreitol, GIBCO BRL), and 200 U of RNase inhibitor (GIBCO BRL) using 200 U of Moloney murine leukemia virus reverse transcriptase (GIBCO BRL) at 37° C. for 120 minutes, then allowed to stand at 94° C. for 2 minutes, and the reaction was terminated. The thus-generated cDNAs were amplified in a 0.01% Tween 20/0.2 mM dNTP/2 mM MgCl2/75 mM Tris buffer (pH 8.8) containing 1 μM 5′-primer([…]) and 3′-primer([…]), using 1.5 U of Taq DNA polymerase (MBI Fermentas, Lithuania) by repeating 20 cycles of PCR (each cycle comprised a denaturation step at 94° C. for 30 seconds, an annealing step. at 58° C. for 30 seconds, and an extension reaction step at 72° C. for 30 seconds), and then allowed to stand at 72° C. for 10 minutes.
The RT-PCR product (502 bp) was applied to a 1% agarose gel with DNA size markers, and subjected to electrophoresis in a Tris-Acetate-EDTA buffer at 100 V for about 30 minutes. After conducting electrophoresis, the gel was dipped in an ethidium bromide solution, shaken for 15 minutes, and then stained. Subsequently, the fluorescence intensity of the gel was measured using a gel analysis program (ATTO Lane Analyzer 10H Software Densitograph provided by Atto Corporation).
Note that, in FIG. 1, the control is epididymis adipose cells to which only DMSO was added.

For the compound `OCC1OC(Oc2cc3c(O)cc(O)cc3[o+]c2-c2ccc(O)c(O)c2)C(O)C(O)C1O` [Cyanidin 3-glucoside, cyanidin 3-O-β-D-glucoside], the “adiponectin mRNA level in adipose tissue (result in words)” value is reported as “increased adiponectin mRNA level”. The mRNA level (100 μM) was 2.7. In addition, the mRNA level (250 μM) is recorded as 2.1.
On the same counts, the results for `Oc1cc(O)c2cc(O)c(-c3ccc(O)c(O)c3)[o+]c2c1` [Cyanidin, cyanidin] are “increased adiponectin mRNA level”, 2.1 and 2.2.
